Measurements: ChEMBL document CHEMBL1133758, “Docking-based development of purine-like inhibitors of cyclin-dependent kinase-2” (J Med Chem, 2000)

target: Cyclin-dependent kinase 1 (Homo sapiens, UniProt P06493); assay: Inhibition of Cyclin-dependent kinase 1
Sequence (P06493 whole entry): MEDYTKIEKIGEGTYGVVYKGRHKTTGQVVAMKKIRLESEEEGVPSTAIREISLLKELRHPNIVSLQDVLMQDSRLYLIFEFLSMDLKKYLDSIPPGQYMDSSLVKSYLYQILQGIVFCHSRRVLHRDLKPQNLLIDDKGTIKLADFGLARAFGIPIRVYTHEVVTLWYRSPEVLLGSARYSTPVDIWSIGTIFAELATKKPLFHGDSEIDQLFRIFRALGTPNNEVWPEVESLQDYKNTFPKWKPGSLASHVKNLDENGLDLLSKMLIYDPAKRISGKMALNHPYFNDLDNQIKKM

First: CC(C)n1cnc2c(NC3CCCC3)nc(NCCCO)nc21
Second: CC(C)n1cnc2c(N)nc(NCCCO)nc21
The IC50 of the first is 4.2-fold lower: 2.4 µM for the first, 10 µM for the second. The first is the more potent here.

First: CC(C)n1cnc2c(NC34CC5CC(CC(C5)C3)C4)nc(NCCCO)nc21
Second: CC(C)n1cnc2c(NCc3ccccc3)ncnc21
The IC50 of the first is higher: over 100 µM for the first, 3.5 µM for the second.

target: Cyclin-dependent kinase 2 (Homo sapiens, UniProt P24941); assay: Inhibition of Cyclin-dependent kinase 2

Going from `CC(C)n1cnc2c(NC3CCCC3)nc(NCCCO)nc21` to `CC(C)n1cnc2c(N)nc(NCCCO)nc21`, the IC50 rises from 0.9 µM to 2.4 µM (2.7-fold).

Compared with `CC(C)n1cnc2c(NC34CC5CC(CC(C5)C3)C4)nc(NCCCO)nc21`, `CC(C)n1cnc2c(NCc3ccccc3)nc(NCCCO)nc21` [BOHEMINE] is lower in IC50: over 100 µM for the first, 0.8 µM for the second.

Compared with `CC(C)n1cnc2c(NCc3ccccc3)nc(NC[C@@H](C)O)nc21`, `CC(C)n1cnc2c(NCc3ccccc3)ncnc21` is 22-fold higher in IC50: 0.2 µM for the first, 4.5 µM for the second. The first is the more potent here.

`CC(C)C(CO)Nc1nc(NCc2cccc(O)c2)c2ncn(C(C)C)c2n1` (stereo unspecified) gave an IC50 of 0.03 µM.
